Measured values taken from PubChem BioAssay AID330 (DTP/NCI, 2004).
Where “and” joins values, the source holds several entries; their conditions need not be identical. Equal values may be shown once. Inconclusive results and toxic doses are left out. How the source made its calls: active means survival T/C of 150% or more; inactive means T/C below 125% in these data.

Tested on: P388 leukemia ip, CD2F1 mice, survival T/C
Assay: NCI In Vivo Anticancer Drug Screen. Data for tumor model P388 Leukemia (intraperitoneal) in CD2F1 (CDF1) mice
Details: endpoint: median survival time, higher = longer survival
Method in brief: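 Mice carrying the transplanted tumor received test compound or vehicle. Survival was recorded in each group, and the value is the treated-group measurement divided by that of the vehicle-treated control group.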

[1] = dose: 50.0 mg/kg/injection, schedule: Q01DX005 (ip), vehicle: saline with Tween-80
[2] = dose: 100.0 mg/kg/injection, schedule: Q01DX005 (ip), vehicle: saline with Tween-80
[3] = dose: 200.0 mg/kg/injection, schedule: Q01DX005 (ip), vehicle: saline with Tween-80
[4] = dose: 50.0 mg/kg/injection, schedule: Q01DX005 (ip), vehicle: Klucel (hydroxypropylcellulose) (HPC)
[5] = dose: 12.5 mg/kg/injection, schedule: Q01DX009 (ip), vehicle: saline with Tween-80
[6] = dose: 25.0 mg/kg/injection, schedule: Q01DX009 (ip), vehicle: saline with Tween-80
[7] = dose: 50.0 mg/kg/injection, schedule: Q01DX009 (ip), vehicle: saline with Tween-80
[8] = dose: 100.0 mg/kg/injection, schedule: Q01DX009 (ip), vehicle: saline with Tween-80
[9] = dose: 200.0 mg/kg/injection, schedule: Q01DX009 (ip), vehicle: saline with Tween-80
[10] = dose: 100.0 mg/kg/injection, schedule: Q04DX003 (ip), vehicle: saline with Tween-80

Measured: T/C

Cn1cc(Cl)c2ccccc2c1=O
inactive: [1] 101 % of control | [2] 99 % of control | [3] 100 % of control

O=C(N/N=C/c1ccco1)C(=O)Nc1cccc(C(F)(F)F)c1
inactive: dose: 12.5 mg/kg/injection, schedule: Q01DX005 (ip), vehicle: Klucel (hydroxypropylcellulose) (HPC) 95 % of control | dose: 25.0 mg/kg/injection, schedule: Q01DX005 (ip), vehicle: Klucel (hydroxypropylcellulose) (HPC) 89 % of control | [4] 88 % of control and 95 % of control

NC(=O)C(CO)NC(=O)c1cccnc1 (centres undefined)
inactive: dose: 60.0 mg/kg/injection, schedule: Q01DX005 (ip), vehicle: saline 100 % of control | dose: 120.0 mg/kg/injection, schedule: Q01DX005 (ip), vehicle: saline 100 % of control | dose: 240.0 mg/kg/injection, schedule: Q01DX005 (ip), vehicle: saline 99 % of control

COc1cc2cc3c4ccc(OC)c(OC)c4cc[n+]3c(C)c2cc1OC (tested in a mixture with another compound)
active: [5] 150 % of control | [6] 164 % of control | [7] 174 % of control | [8] 209 % of control

CC(C)C12CC3=C(C(=O)C1O2)C1(C)CCC2=C(COC2=O)C1CC3 (centres undefined)
inactive: dose: 3.75 mg/kg/injection, schedule: Q01DX005 (ip), vehicle: DMSO 102 % of control | dose: 7.5 mg/kg/injection, schedule: Q01DX005 (ip), vehicle: DMSO 119 % of control | dose: 15.0 mg/kg/injection, schedule: Q01DX005 (ip), vehicle: DMSO 123 % of control

COc1ccc2oc(N(C)c3ccccc3)c(C3OC4OC(C)(C)OC4C3OC)c(=O)c2c1 (centres undefined)
inactive: dose: 25.0 mg/kg/injection, schedule: Q01DX001 (ip), vehicle: Klucel (hydroxypropylcellulose) (HPC) 97 % of control | dose: 50.0 mg/kg/injection, schedule: Q01DX001 (ip), vehicle: Klucel (hydroxypropylcellulose) (HPC) 105 % of control | dose: 100.0 mg/kg/injection, schedule: Q01DX001 (ip), vehicle: Klucel (hydroxypropylcellulose) (HPC) 109 % of control

O=C(c1ccc(Br)cc1)c1ccc(Br)cc1
inactive: dose: 10.0 mg/kg/injection, schedule: Q01DX009 (ip), vehicle: other 100 % of control | dose: 20.0 mg/kg/injection, schedule: Q01DX009 (ip), vehicle: other 105 % of control | dose: 40.0 mg/kg/injection, schedule: Q01DX009 (ip), vehicle: other 92 % of control | dose: 50.0 mg/kg/injection, schedule: Q04DX003 (ip), vehicle: saline 99 % of control | dose: 80.0 mg/kg/injection, schedule: Q01DX009 (ip), vehicle: other 92 % of control | dose: 100.0 mg/kg/injection, schedule: Q04DX003 (ip), vehicle: saline 93 % of control | dose: 160.0 mg/kg/injection, schedule: Q01DX009 (ip), vehicle: other 105 % of control | dose: 200.0 mg/kg/injection, schedule: Q04DX003 (ip), vehicle: saline 94 % of control | dose: 320.0 mg/kg/injection, schedule: Q01DX009 (ip), vehicle: other 100 % of control | dose: 400.0 mg/kg/injection, schedule: Q04DX003 (ip), vehicle: saline 95 % of control

CCCCCCCCCCCCCCCCCC[N+]1(CCCC)CCOCC1
inactive: [5] 102 % of control | [6] 108 % of control | [7] 101 % of control and 114 % of control

CCCCCN(CCC)CCCCCCCCCN1CCCc2cc(OC)ccc21
inactive: dose: 50.0 mg/kg/injection, schedule: Q01DX005 (ip), vehicle: saline + Tween-80 + alcohol 105 % of control | dose: 100.0 mg/kg/injection, schedule: Q01DX005 (ip), vehicle: saline + Tween-80 + alcohol 110 % of control

CC1(Cc2ccccc2)N=C1c1ccccc1 (centres undefined)
inactive: dose: 100.0 mg/kg/injection, schedule: Q04DX002 (ip), vehicle: saline with Tween-80 106 % of control | dose: 200.0 mg/kg/injection, schedule: Q04DX002 (ip), vehicle: saline with Tween-80 103 % of control

Cc1ccc(-n2nnc(-c3ccc(Cl)c(Cl)c3)n2)cc1
inactive: [1] 103 % of control | [2] 103 % of control | [3] 100 % of control

CN1CCc2sccc2C(c2ccccc2)O1 (centres undefined)
inactive: [4] 112 % of control | dose: 100.0 mg/kg/injection, schedule: Q01DX005 (ip), vehicle: Klucel (hydroxypropylcellulose) (HPC) 104 % of control | dose: 200.0 mg/kg/injection, schedule: Q01DX005 (ip), vehicle: Klucel (hydroxypropylcellulose) (HPC) 113 % of control

Cn1nnc2c(Cl)nccc21
inactive: dose: 100.0 mg/kg/injection, schedule: Q04DX002 (ip), vehicle: saline 105 % of control | dose: 200.0 mg/kg/injection, schedule: Q04DX002 (ip), vehicle: saline 100 % of control | dose: 400.0 mg/kg/injection, schedule: Q04DX002 (ip), vehicle: saline 102 % of control

CC(C)(C)n1nc(C2CC2)c(Br)c1NC(=O)c1ccccc1
inactive: dose: 30.0 mg/kg/injection, schedule: Q01DX005 (ip), vehicle: Klucel (hydroxypropylcellulose) (HPC) 107 % of control | dose: 60.0 mg/kg/injection, schedule: Q01DX005 (ip), vehicle: Klucel (hydroxypropylcellulose) (HPC) 109 % of control | dose: 120.0 mg/kg/injection, schedule: Q01DX005 (ip), vehicle: Klucel (hydroxypropylcellulose) (HPC) 107 % of control | dose: 240.0 mg/kg/injection, schedule: Q01DX005 (ip), vehicle: Klucel (hydroxypropylcellulose) (HPC) 98 % of control

[O-]/[N+](=C\c1ccccc1)CC1(O)CCCCC1
inactive: [7] 90 % of control | [8] 88 % of control | [9] 99 % of control

CCCCCCCCCCCC(=O)N(CCOC(=O)c1ccccc1)CCc1ccccc1
inactive: [7] 109 % of control | [8] 109 % of control | [9] 116 % of control

C[C@]12CC[C@@H]3c4cc(N)c(O)cc4CC[C@H]3[C@@H]1CC[C@@H]2O
inactive: [1] 100 % of control | [2] 103 % of control | [3] 100 % of control

CC(C)CCC(C)C1CCC2C3CC([N+](=O)[O-])=C4CC(OC(=O)c5ccccc5)CCC4(C)C3CCC12C (centres undefined)
inactive: [10] 90 % of control | dose: 200.0 mg/kg/injection, schedule: Q04DX003 (ip), vehicle: saline with Tween-80 90 % of control | dose: 400.0 mg/kg/injection, schedule: Q04DX003 (ip), vehicle: saline with Tween-80 90 % of control

C/C(=N\[N+](C)(C)C)c1ccccc1
inactive: dose: 12.5 mg/kg/injection, schedule: Q04DX003 (ip), vehicle: saline with Tween-80 100 % of control | dose: 25.0 mg/kg/injection, schedule: Q04DX003 (ip), vehicle: saline with Tween-80 100 % of control | dose: 50.0 mg/kg/injection, schedule: Q04DX003 (ip), vehicle: saline with Tween-80 102 % of control | [10] 100 % of control

C/C(=N\N=C(/N)N1CCCC1)c1ccc2c(c1)Cc1cc(/C(C)=N/N=C(\N)N3CCCC3)ccc1-2
inactive: dose: 25.0 mg/kg/injection, schedule: Q04DX002 (ip), vehicle: saline with Tween-80 98 % of control | dose: 50.0 mg/kg/injection, schedule: Q04DX002 (ip), vehicle: saline with Tween-80 98 % of control

C[C@@H]1CC(c2ccc(Cl)cc2)[C@@H](c2ccccc2)C(=O)O1 (some centres undefined)
inactive: dose: 100.0 mg/kg/injection, schedule: Q04DX003 (ip), vehicle: Klucel (hydroxypropylcellulose) (HPC) 100 % of control | dose: 200.0 mg/kg/injection, schedule: Q04DX003 (ip), vehicle: Klucel (hydroxypropylcellulose) (HPC) 99 % of control | dose: 400.0 mg/kg/injection, schedule: Q04DX003 (ip), vehicle: Klucel (hydroxypropylcellulose) (HPC) 97 % of control

CC(=O)Nc1ccc(NC(=O)Nc2c(Cl)cccc2Cl)cc1
inactive: dose: 50.0 mg/kg/injection, schedule: Q01DX009 (ip), vehicle: Klucel (hydroxypropylcellulose) (HPC) 100 % of control | dose: 100.0 mg/kg/injection, schedule: Q01DX009 (ip), vehicle: Klucel (hydroxypropylcellulose) (HPC) 98 % of control | dose: 200.0 mg/kg/injection, schedule: Q01DX009 (ip), vehicle: Klucel (hydroxypropylcellulose) (HPC) 91 % of control

CCOC(CCC1=NC(C)(C)CC(C)O1)OCC (centres undefined)
inactive: dose: 100.0 mg/kg/injection, schedule: Q01DX001 (ip), vehicle: saline sonified 110 % of control | dose: 200.0 mg/kg/injection, schedule: Q01DX001 (ip), vehicle: saline sonified 100 % of control | dose: 400.0 mg/kg/injection, schedule: Q01DX001 (ip), vehicle: saline sonified 90 % of control

C=C=C(COC(C)=O)ON1CCC(C)CC1
inactive: dose: 9.0 mg/kg/injection, schedule: Q01DX001 (ip), vehicle: saline 102 % of control | dose: 18.12 mg/kg/injection, schedule: Q01DX001 (ip), vehicle: saline 102 % of control | dose: 36.25 mg/kg/injection, schedule: Q01DX001 (ip), vehicle: saline 100 % of control
